These results are taken from ChEMBL document CHEMBL5030519, “A "Two-Birds-One-Stone" Approach toward the Design of Bifunctional Human Immunodeficiency Virus Type 1 Entry Inhibitors Targeting the CCR5 Coreceptor and gp41 N-Terminal Heptad Repeat Region” (J Med Chem, 2021).

Residues, ends and D or L forms follow the SMILES beside them. Groups on a side chain read outwards from the residue. *: point of attachment. X1 = CC(=O)N1CCC(C(=O)N(CCCN2CCC(Cc3ccc(C(=O)*)cc3)CC2)c2ccc(C)c(Cl)c2)CC1; PEG12 = NCCOCCOCCOCCOCCOCCOCCOCCOCCOCCOCCOCCOCCC(=O)O

The test system of assay [1] is Human immunodeficiency virus 1. It is filed as functional, organism-based, V38E/N42S. The note with it: cemx174 5.25m7.
In assay [2] the test system is Human immunodeficiency virus 1. It is filed as functional, organism-based. Conditions: Human immunodeficiency virus 1, BaL (subtype B, R5), CEMx174 5.25M7, 144 h.
Assay [3] relates to Human immunodeficiency virus 1. The format is functional, organism-based, N427/N43K. The note with it: cemx174 5.25m7.
Assay [4] has as its system Human immunodeficiency virus 1. The format is functional, organism-based, D36G. The note with it: cemx174 5.25m7.
Assay [5] has as its system Human immunodeficiency virus 1. It is filed as functional, organism-based, V38A/N427. Conditions: cemx174 5.25m7.

What is called EC50 is the concentration giving half of the maximal effect. A high value points to lower potency in that assay. For the molecule enfuvirtide, the EC50 in assay [1] was 261 nM; in assay [2], 1.58 nM; in assay [3], 673 nM; in assay [4], 4.31 nM; in assay [5], 656 nM.

In assay [2], `CC[C@H](C)[C@H](NC(=O)[C@H](CC(C)C)NC(=O)[C@H](CO)NC(=O)[C@H](Cc1cnc[nH]1)NC(=O)[C@@H](NC(=O)[C@H](CC(C)C)NC(=O)[C@H](CO)NC(=O)[C@@H](NC(=O)[C@H](Cc1ccc(O)cc1)NC(=O)[C@H](CC(N)=O)NC(=O)[C@H](CC(N)=O)NC(C)=O)[C@@H](C)O)[C@@H](C)CC)C(=O)N[C@@H](CCC(=O)O)C(=O)N[C@@H](CCC(=O)O)C(=O)N[C@@H](CO)C(=O)N[C@@H](CCC(N)=O)C(=O)N[C@@H](CC(N)=O)C(=O)N[C@@H](CCC(N)=O)C(=O)N[C@@H](CCC(N)=O)C(=O)N[C@@H](CCC(=O)O)C(=O)N[C@@H](CCCCN)C(=O)N[C@@H](CC(N)=O)C(=O)N[C@@H](CCC(=O)O)C(=O)N[C@@H](CCC(N)=O)C(=O)N[C@@H](CCC(=O)O)C(=O)N[C@@H](CC(C)C)C(=O)N[C@@H](CC(C)C)C(=O)N[C@@H](CCCCNC(=O)CCOCCOCCOCCOCCOCCOCCOCCOCCOCCOCCOCCOCCNC(=O)c1ccc(CC2CCN(CCCN(C(=O)C3CCN(C(C)=O)CC3)c3ccc(C)c(Cl)c3)CC2)cc1)C(N)=O` (Ac-NNYTSLIHSLIEESQNQQEKNEQELLK([PEG12-X1])-NH2) returned an EC50 greater than 50 nM.
